# Source: US11976068B2 (CHIMERIX, INC., priority 2015, dated 2024)
# Tests used:
# advanced solid tumors = assay: Phase I trial, tumor response (RECIST); format: in vivo, human
# Description: Tumor responses were assessed using RECIST every 2 cycles.
# human MDR1 = human MDR1 (Homo sapiens, UniProt P08183); details: at 200 micromolar
# [1] = Phase I trial, safety and toxicity assessment
# [2] = Pat # 1, NSCLC, 125 mg every three weeks, dose escalation phase
# [3] = Pat # 2, Appendiceal adenocarcinoma, 250 mg every three weeks, dose escalation phase
# [4] = Pat # 3, Uterine cancer, 375 mg every three weeks, dose escalation phase
# [5] = Pat # 4, Renal cancer, 500 mg every three weeks, dose escalation phase
# [6] = Pat # 5, Breast cancer, 625 mg every three weeks, dose escalation phase
# [7] = Pat # 6, Prostate adenocarcinoma, 625 mg every three weeks, dose escalation phase
# [8] = Pat # 7, Small cell lung cancer, 625 mg every three weeks, dose escalation phase
# [9] = Pat # 8, Colon adenocarcinoma, 625 mg every three weeks, dose escalation phase
# [10] = Pat # 9, Spindle cell sarcoma, 625 mg every three weeks, dose escalation phase
# [11] = Pat # 10, Ovarian, 625 mg every three weeks, dose escalation phase
# [12] = Pat # 11, Uterine cancer, 625 mg every three weeks, expansion phase
# [13] = Pat # 13, Ovarian cancer, 625 mg every three weeks, expansion phase
# [14] = Pat # 14, Gall bladder cancer, 625 mg every three weeks, expansion phase
# [15] = Pat # 15, Desmoplastic small round cell tumor (DSRCT), 625 mg every three weeks, expansion phase
# [16] = Pat # 16, Colon cancer, 625 mg every three weeks, expansion phase
# [17] = Pat # 17, Prostate adenocarcinoma, 625 mg every three weeks, expansion phase
# [18] = Pat # 18, Ovarian cancer, 625 mg every three weeks, expansion phase
# [19] = Pat # 19, Prostate adenocarcinoma, 625 mg every three weeks, expansion phase
# [20] = Pat # 20, Uterine Cancer, 625 mg every three weeks, expansion phase
# Sequence of human MDR1 (P08183 whole entry): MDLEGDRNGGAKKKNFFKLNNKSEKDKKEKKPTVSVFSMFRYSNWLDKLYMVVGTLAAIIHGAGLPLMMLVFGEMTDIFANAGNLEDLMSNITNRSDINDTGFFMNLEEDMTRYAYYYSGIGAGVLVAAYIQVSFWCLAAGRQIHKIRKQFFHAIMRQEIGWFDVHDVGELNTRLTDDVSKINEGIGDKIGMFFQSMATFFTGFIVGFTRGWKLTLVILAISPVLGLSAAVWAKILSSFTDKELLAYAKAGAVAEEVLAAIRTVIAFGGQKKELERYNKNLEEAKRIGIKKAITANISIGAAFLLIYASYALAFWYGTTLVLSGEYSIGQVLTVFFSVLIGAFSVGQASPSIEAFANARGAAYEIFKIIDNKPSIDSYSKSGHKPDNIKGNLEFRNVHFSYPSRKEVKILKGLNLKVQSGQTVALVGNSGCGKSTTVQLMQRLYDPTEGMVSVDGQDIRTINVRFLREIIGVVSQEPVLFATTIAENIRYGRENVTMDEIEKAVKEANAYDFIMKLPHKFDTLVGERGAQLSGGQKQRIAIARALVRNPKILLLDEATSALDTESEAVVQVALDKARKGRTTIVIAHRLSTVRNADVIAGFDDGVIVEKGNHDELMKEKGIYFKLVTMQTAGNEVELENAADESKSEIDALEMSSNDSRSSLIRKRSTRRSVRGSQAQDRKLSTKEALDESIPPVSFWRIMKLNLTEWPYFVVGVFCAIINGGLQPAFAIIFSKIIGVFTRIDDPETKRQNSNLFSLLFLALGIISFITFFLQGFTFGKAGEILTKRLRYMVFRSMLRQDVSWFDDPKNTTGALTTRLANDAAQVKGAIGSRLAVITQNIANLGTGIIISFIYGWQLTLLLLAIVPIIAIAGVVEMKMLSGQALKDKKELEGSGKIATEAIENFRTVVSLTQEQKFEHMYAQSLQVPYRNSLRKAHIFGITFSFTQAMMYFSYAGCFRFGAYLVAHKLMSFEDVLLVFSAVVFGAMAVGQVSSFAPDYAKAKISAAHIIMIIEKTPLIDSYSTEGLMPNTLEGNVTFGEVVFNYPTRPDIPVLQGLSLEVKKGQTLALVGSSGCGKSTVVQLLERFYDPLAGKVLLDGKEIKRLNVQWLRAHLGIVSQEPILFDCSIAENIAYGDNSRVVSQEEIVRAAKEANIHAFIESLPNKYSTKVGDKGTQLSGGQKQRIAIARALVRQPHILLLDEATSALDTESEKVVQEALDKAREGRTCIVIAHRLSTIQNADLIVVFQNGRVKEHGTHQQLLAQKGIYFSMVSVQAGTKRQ
compound,measurement,setting,value
"Cc1ccccc1CN1C(=O)C2=C(CCN(Cc3ccccc3)C2)N2CCN=C12 [ONC201, 7-benzyl-4-(2-methylbenzyl)-2,4,6,7,8,9-hexahydroimidazo [1,2-a]pyrido[3,4-e]pyrimidin-5(1H)-one]",Time on Study,"advanced solid tumors; Pat # 1, NSCLC, 125 mg, 4 doses",12 weeks
same,Time on Study,"advanced solid tumors; Pat # 2, Appendiceal cancer, 250 mg, 4 doses",12 weeks
same,Time on Study,"advanced solid tumors; Pat # 3, Uterine cancer, 375 mg, 2 doses",6 weeks
same,Time on Study,"advanced solid tumors; Pat # 4, Renal cancer, 500 mg, 2 doses",6 weeks
same,Time on Study,"advanced solid tumors; Pat # 5, Breast cancer, 625 mg, 2 doses",6 weeks
same,Time on Study,"advanced solid tumors; Pat # 6, Prostate adenocarcinoma, 625 mg, 9 doses",27 weeks
same,Time on Study,"advanced solid tumors; Pat # 7, Small cell lung cancer, 625 mg, 2 doses",6 weeks
same,Time on Study,"advanced solid tumors; Pat # 8, Colon adenocarcinoma, 625 mg, 4 doses",12 weeks
same,Time on Study,"advanced solid tumors; Pat # 9, Spindle cell sarcoma, 625 mg, 2 doses",6 weeks
same,Time on Study,"advanced solid tumors; Pat # 10, Ovarian, 625 mg, 1 dose",3 weeks
same,decrease of multiple nodes,"advanced solid tumors; Patient #3, advanced clear cell endometrial cancer, mixed response with new nodes",> 30%
same,symptom relief,"advanced solid tumors; Patient #4, renal cancer and bone metastasis with debilitating pain in the clavicle",relief from their clavicular pain
same,patients with stable disease,"advanced solid tumors; dose escalation phase, 10 patients",Eight of 10
same,inhibitor of MDR1,human MDR1,inhibitor
same,"only adverse event possibly attributed to ONC201, expansion phase","[1]; 10 patients, 625 mg every 3 weeks",vomiting in one patient
same,"only adverse event possibly attributed to ONC201, dose escalation phase","[1]; 10 patients, 125-625 mg every 3 weeks",low grade fever in one patient
same,Adverse Events Grade 1,[1]; [2],Fever
same,Adverse Events Grade 2-4,[1]; [2],0
same,Adverse Events Grade 1,[1]; [3],0
same,Adverse Events Grade 2-4,[1]; [3],0
same,Adverse Events Grade 1,[1]; [4],0
same,Adverse Events Grade 2-4,[1]; [4],0
same,Adverse Events Grade 1,[1]; [5],0
same,Adverse Events Grade 2-4,[1]; [5],0
same,Adverse Events Grade 1,[1]; [6],0
same,Adverse Events Grade 2-4,[1]; [6],0
same,Adverse Events Grade 1,[1]; [7],0
same,Adverse Events Grade 2-4,[1]; [7],0
same,Adverse Events Grade 1,[1]; [8],0
same,Adverse Events Grade 2-4,[1]; [8],0
same,Adverse Events Grade 1,[1]; [9],0
same,Adverse Events Grade 2-4,[1]; [9],0
same,Adverse Events Grade 1,[1]; [10],0
same,Adverse Events Grade 2-4,[1]; [10],0
same,Adverse Events Grade 1,[1]; [11],0
same,Adverse Events Grade 2-4,[1]; [11],0
same,Adverse Events Grade 1,[1]; [12],0
same,Adverse Events Grade 2-4,[1]; [12],0
same,Adverse Events Grade 1,"[1]; Pat # 12, Uterine cancer, 625 mg every three weeks, expansion phase",0
same,Adverse Events Grade 1,[1]; [13],Vomiting
same,Adverse Events Grade 2-4,[1]; [13],0
same,Adverse Events Grade 1,[1]; [14],0
same,Adverse Events Grade 2-4,[1]; [14],0
same,Adverse Events Grade 1,[1]; [15],0
same,Adverse Events Grade 2-4,[1]; [15],0
same,Adverse Events Grade 1,[1]; [16],0
same,Adverse Events Grade 2-4,[1]; [16],0
same,Adverse Events Grade 1,[1]; [17],0
same,Adverse Events Grade 2-4,[1]; [17],0
same,Adverse Events Grade 1,[1]; [18],0
same,Adverse Events Grade 2-4,[1]; [18],0
same,Adverse Events Grade 1,[1]; [19],0
same,Adverse Events Grade 2-4,[1]; [19],0
same,Adverse Events Grade 1,[1]; [20],0
same,Adverse Events Grade 2-4,[1]; [20],0
same,drug-related adverse events,[1]; oral 125 to 625 mg every 3 weeks,No Grade >1 drug-related adverse events occurred
same,recommended phase II dose (RP2D),"[1]; oral, once every 3 weeks",625 mg
same,Laboratory studies and physical exams,[1]; phase I patients,did not reveal any drug-related abnormalities
same,cardiovascular assessments,[1]; phase I patients,no drug-related effects
